# In paper PMC12091848, “Structural Insights Into Galectin‐3 Recognition of a Selenoglycomimetic” (Chemmedchem, 2025):
# Target: T1, Galectin-3 (Gal-3) (Homo sapiens, UniProt P17931)
# T1 construct: gene LGALS3
# Experiment: biochemical
# T1 sequence (P17931 114-250 limits assumed): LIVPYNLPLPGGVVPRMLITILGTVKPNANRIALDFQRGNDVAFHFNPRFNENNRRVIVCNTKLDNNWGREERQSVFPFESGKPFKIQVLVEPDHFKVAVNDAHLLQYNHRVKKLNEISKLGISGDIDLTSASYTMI
compound,measurement,value
"OC[C@H]1O[C@@H]([Se][C@@H]2O[C@H](CO)[C@H](O)[C@H](O)[C@H]2O)[C@H](O)[C@@H](O)[C@H]1O [SeDG, di(β‐D‐galactopyranosyl)selenide]",Kd,149 ± 30 µM
